We go through 11 molecules from PubChem BioAssay (NCI).

What is called GI50 is the concentration that inhibits growth by half. Usually TGI stands for the concentration giving total growth inhibition. High values mean lower sensitivity of the cells, low ones greater sensitivity of the cells.

Common to all, as to test: DTP human tumour cell line panel, 48 h
Experiment [1] has as its system CAKI-1 renal.
The test system of experiment [2] is HCT-15 colon.
Experiment [3] relates to NCI-H522 lung.
Experiment [4] has as its system LOX IMVI melanoma.
For experiment [5], the system named is EKVX NSCLC.
Experiment [6] deals with HOP-92 NSCLC.
Experiment [7] deals with NCI-H460 lung.
Experiment [8] concerns U251 CNS.
Experiment [9] relates to HCC-2998 colon.
The subject of experiment [10] is OVCAR-5 ovarian.

“And” between values parts separate entries of the source, which are not always exact repeats. Identical values can stand only once.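 Compound exposure: 48 hours, 5 concentrations, 96-well plates. At the GI50, growth is halved. TGI marks complete inhibition of growth.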 Some results are limits rather than exact numbers.

As for `COc1cc2c(/C=C3\C(=O)N(C)c4ccccc43)c[nH]c2cc1C`, the GI50 in experiment [1] was 2.01 µM; in experiment [2], 0.33 µM; in experiment [3] it was 8.82 µM; in experiment [4], 0.869 µM; in experiment [5], 8.81 µM; in experiment [6], 15.7 µM. Also, the results for the GI50 in experiment [8], in [9] and in experiment [10] were 0.499 µM, 1.79 µM and 7.94 µM, respectively. The TGI is 51.3 µM in experiment [1]; more than 100 µM in experiment [2]; more than 87.5 µM in [3]; more than 47.9 µM in [4]; more than 100 µM in experiment [5]; 79.4 µM in [6]. Also, the TGI in [7] was more than 37.1 µM; in [8], 29.6 µM; in [9], more than 68.3 µM; in experiment [10], more than 63.9 µM.

`Nc1nc(Sc2ccc([N+](=O)[O-])c3nonc23)c2ncn(C3OC(CO)C(O)C3O)c2n1` (centres undefined): the GI50 is 0.669 µM in [1]; 0.587 µM in [2]; 0.64 µM in experiment [3]; 0.221 µM in experiment [4]; 2.88 µM in experiment [5]; 0.514 µM in experiment [6]. The 50% growth inhibitory concentration (GI50) in experiment [7] was 0.311 µM; in experiment [8], 0.685 µM; in [9], 0.777 µM; in experiment [10], 1.07 µM. The TGI in experiment [1] is more than 100 µM; in experiment [2] it was 11.9 µM; in experiment [3], 14.2 µM; in experiment [4], 2.76 µM; in [5], more than 49.8 µM; in experiment [6], 18.1 µM. The total growth inhibition concentration (TGI) in [7] was 15.5 µM; in experiment [8], more than 85.1 µM; in experiment [9] it was 3.49 µM; in experiment [10] it was 13.1 µM.

On to `COc1cc2c3c(n(CCCN=[N+]=[N-])c(=O)c2cc1OC)-c1ccc(F)cc1C3=O`, for which the GI50 in experiment [1] is 4.56 µM; in experiment [2], 79.3 µM; in experiment [3], 4.89 µM; in experiment [4], 4.04 µM; in [5], 89.4 µM; in experiment [6], 2.27 µM. Also, the GI50 is 1.87 µM in [7], 4.6 µM in experiment [8], 16.3 µM in [9] and more than 100 µM in experiment [10]. For the same molecule, the TGI was more than 100 µM in [1]; more than 100 µM in experiment [2]; more than 100 µM in experiment [3]; more than 100 µM in experiment [4]; more than 100 µM in experiment [5]; 8.15 µM in [6]. In addition, the TGI in [7] was 13.3 µM; in experiment [8], 55.6 µM; in experiment [9], more than 100 µM; in experiment [10], more than 100 µM.

`CCOc1ccc(-c2nc3ccc(-c4nc5ccc(N6CCN(C)CC6)cc5[nH]4)cc3[nH]2)cc1`: the GI50 in experiment [1] is 0.555 µM; in experiment [2] it was 1.48 µM; in experiment [3], 0.09 µM; in [4], 0.188 µM; in experiment [5] it was 0.658 µM; in experiment [6], 0.213 µM and 0.0913 µM. Moreover, the GI50 was 0.489 µM in [7]; 0.155 µM in experiment [8]; 0.267 µM and 0.196 µM in [9]; 1.47 µM in experiment [10]. The TGI in [1] is 2.55 µM; in experiment [2] it was 7.61 µM; in [3], 0.442 µM; in experiment [4], 0.485 µM; in [5] it was 3.1 µM; in experiment [6], 2.27 µM and 1.52 µM. Further, the TGI is 1.67 µM in experiment [7]; 1.05 µM in experiment [8]; 0.543 µM and 0.415 µM in experiment [9]; 3.07 µM in experiment [10].

Regarding `COc1cccc(S(=O)(=O)NC2=NCCN2C(=S)SN2CCn3c2nsc3=S)c1`, the GI50 was 32 µM in experiment [1]; 21.6 µM in [2]; 20.1 µM in experiment [3]; 13.2 µM in experiment [4]; 95.7 µM in experiment [5]; 44.4 µM in experiment [6]. Moreover, the GI50 in [7] was 58.3 µM; in [8], 22 µM; in experiment [9], 41.5 µM; in [10], 23 µM. Moreover, the total growth inhibition concentration (TGI) in experiment [1] is 66.2 µM; in experiment [2], 43.7 µM; in experiment [3], 40.9 µM; in [4], 26.5 µM; in experiment [5] it was more than 100 µM; in [6] it was more than 100 µM. In addition, the TGI in experiment [7] was more than 100 µM; in experiment [8], 61.8 µM; in experiment [9] it was more than 100 µM; in experiment [10], 79.4 µM.

In the case of `OCc1ccc(-c2nc(-c3ccc4c(c3)OCO4)c(-c3ccccn3)[nH]2)cc1`, the GI50 in [1] is 11.4 µM; in experiment [2], 15.1 µM; in experiment [3], more than 25 µM; in experiment [4], 19 µM; in [5] it was more than 25 µM; in [6] it was more than 12.9 µM. In addition, the GI50 is more than 20.9 µM in [7], more than 25 µM in experiment [8], more than 25 µM in experiment [9] and more than 22.8 µM in experiment [10]. Further, the TGI in experiment [1], in experiment [2], in experiment [3], in experiment [4], in experiment [5] and in experiment [6] was more than 25 µM throughout. In addition, the TGI in [7], in [8], in experiment [9] and in [10] was more than 25 µM each time.

In the case of `CCOC(=O)Cc1csc(NC(=O)C(OC(=O)c2ccc(Cl)cc2)c2ccccc2)n1` (centres undefined), the GI50 is 61.9 µM in [1]; 51.6 µM in [2]; 46 µM in experiment [3]; 33.6 µM in experiment [4]; 59.6 µM in experiment [5]; 27.2 µM in experiment [6]. Also, the GI50 in [7] is 36.1 µM; in [8], 45.3 µM; in experiment [9], 50.9 µM; in experiment [10], 38.5 µM. Also, the total growth inhibition concentration (TGI) in experiment [1], in experiment [2], in experiment [3], in experiment [4], in [5] and in [6] was more than 100 µM throughout. The TGI in experiment [7], in [8], in experiment [9] and in experiment [10] was more than 100 µM throughout.

As to `N#Cc1c(N)nc2c(c1-c1ccc(Cl)cc1)COc1ccc(F)cc1-2`, the GI50 in experiment [1] is 25.2 µM; in [2], 24.1 µM; in experiment [3], 23 µM; in experiment [4] it was 18.4 µM; in experiment [5], 22 µM; in experiment [6], 31.6 µM. The GI50 was 37.1 µM in experiment [7], 31.7 µM in experiment [8], 23.3 µM in experiment [9] and 27.5 µM in experiment [10]. For the same molecule, the TGI in experiment [1] is 66.3 µM; in [2], 84.7 µM; in experiment [3], 59.5 µM; in experiment [4], 40.2 µM; in experiment [5], 63.3 µM; in [6], more than 100 µM. The TGI in experiment [7] was more than 100 µM; in experiment [8], more than 100 µM; in experiment [9] it was 68.8 µM; in experiment [10], more than 100 µM.

As to `CCOC(=O)c1ccc(N2NC(=O)/C(=C/c3ccc([N+](=O)[O-])o3)C2=O)cc1`, the GI50 in experiment [1] was 5.76 µM; in [2], 13.6 µM; in experiment [3], 4.18 µM; in [4], 17.7 µM; in experiment [5], more than 37.7 µM; in experiment [6], 15.6 µM. Further, the GI50 in experiment [7] is more than 43.3 µM; in experiment [8] it was 39.9 µM; in experiment [9] it was more than 41.8 µM; in experiment [10], 19 µM. The TGI in [1] was 13.6 µM; in experiment [2], 31.5 µM; in experiment [3] it was 8.53 µM; in experiment [4] it was 34.4 µM; in experiment [5], more than 53.1 µM; in [6], 31.8 µM. For the same molecule, the TGI in experiment [7] is more than 60.7 µM; in [8], more than 66.6 µM; in [9], more than 56.5 µM; in [10] it was 40.7 µM.

Regarding `O=C(Nc1ccc(I)cc1F)c1cc(Br)ccc1O`, the GI50 in [1] is 0.308 µM; in experiment [2] it was 0.743 µM; in [3], 0.348 µM; in [4], 0.474 µM; in [5] it was 1.04 µM; in experiment [6], 0.162 µM. The GI50 was 0.452 µM in [7], 0.754 µM in [8], 2.77 µM in experiment [9] and 4.01 µM in experiment [10]. For the same molecule, the TGI in experiment [1] was found to be 2.34 µM; in [2], 6.72 µM; in experiment [3], 4.44 µM; in experiment [4], 2.75 µM; in experiment [5] it was 7.22 µM; in [6], 0.516 µM. For the same molecule, the TGI was 8.05 µM in experiment [7], more than 100 µM in [8], 10.7 µM in experiment [9] and more than 100 µM in experiment [10].

Take `CCCN(CCC)c1ccc(/C=N/NC(=O)c2cccnc2)c(C)c1`: the GI50 is 19.2 µM in experiment [1]; 11.9 µM in experiment [2]; 12.6 µM in [3]; 13.5 µM in experiment [4]; 13.5 µM in experiment [5]; 11.3 µM in experiment [6]. Besides, the GI50 in experiment [7] was 14.2 µM; in experiment [8], 13.3 µM; in [9], 14.3 µM; in experiment [10], 13.1 µM. Moreover, the TGI was determined as 58.7 µM in [1]; 47.8 µM in experiment [2]; 30 µM in experiment [3]; 27.6 µM in experiment [4]; 37.2 µM in [5]; 26.2 µM in experiment [6]. The TGI in experiment [7] was 28.3 µM; in [8] it was 26 µM; in experiment [9], 32.1 µM; in experiment [10] it was 33.8 µM.
